Columns and labels:
PRKACA (PKA) = target: T1, PRKACA (PKA) (Homo sapiens, UniProt P17612); experiment: SelectScreen kinase panel, Z′-LYTE kinase assay; type: biochemical; conditions: read-out: Inhibition percentage at 1 μM
T1 construct: purchased Thermo Fisher Scientific SelectScreen
Protocol: (§1) Kinase panel screening was carried out using the SelectScreen Kinase Assay (Thermo Fisher Scientific, Waltham, MA, USA). Three complementary assay formats were applied: the Z′-LYTE kinase assay, LanthaScreen Eu kinase binding assay, and Adapta Universal kinase assay. The kinases selected for this study and the corresponding assay formats are summarised in Supplementary Table S1.
(§2) The Z′-LYTE Kinase Assay (Thermo Fisher Scientific, Waltham, MA, USA) was used to evaluate selected kinases’ activity, according to the manufacturer’s instructions (https://www.thermofisher.com/tw/zt/home/industrial/pharma-biopharma/drug-discovery-development/target-and-lead-identification-and-validation/kinasebiology/kinase-activity-assays/z-lyte/z-lyte-reactivity-table.html). This endpoint assay quantifies kinase activity by detecting peptide substrate phosphorylation. Briefly, a 2× mixture of selected kinase and relevant substrate was prepared in kinase buffer (0.01% polyoxyethylene lauryl ether (BRIJ-35), 50 mM 4-(2-hydroxyethyl)-1-piperazineethanesulfonic acid (HEPES), pH 7.5, 1 mM ethylene glycol-bis(β-aminoethyl ether)-N,N,N′,N′-tetraacetic acid (EGTA), and 10 mM MgCl2). After 1 h incubation at room temperature, 5 μl of 1:128 diluted development reagent solution was added, followed by an additional 1 h incubation. Fluorescence was recorded using a multimode plate reader.

PRKCA (PKC alpha) = target: T2, PRKCA (PKC alpha) (Homo sapiens, UniProt P17252); experiment: SelectScreen kinase panel, Z′-LYTE kinase assay; type: biochemical; conditions: read-out: Inhibition percentage at 1 μM
T2 construct: purchased Thermo Fisher Scientific SelectScreen
Protocol: as §1, §2

PAK2 (PAK65) = target: T3, PAK2 (PAK65) (Homo sapiens, UniProt Q13177); experiment: SelectScreen kinase panel, Z′-LYTE kinase assay; type: biochemical; conditions: read-out: Inhibition percentage at 1 μM
T3 construct: purchased Thermo Fisher Scientific SelectScreen
Protocol: as §1, §2

[1] = test system: panel of 40 kinases from various families; experiment: Kinase panel screening (SelectScreen), whole panel; type: biochemical; conditions: all 40 kinases; 1 μM
Protocol: as §1
as §2, with “reader. […]” for “reader.”

LIMK1 = target: T4, LIMK1 (Homo sapiens, UniProt P53667); experiment: LanthaScreen Eu kinase binding assay (SelectScreen), LIMK1 inhibition
T4 construct: purchased Thermo Fisher Scientific (SelectScreen Kinase assay service)
Protocol: (§3) The inhibitory activities of the compounds against kinases were tested using the SelectScreen Kinase assay from Thermo Fisher Scientific in Waltham, MA, USA. The LanthaScreen Eu kinase binding assay was used to validate the LIMK1 inhibition activity of the compounds, and was performed according to the manufacturer’s protocol (https://www.thermofisher.com/tw/zt/home/industrial/pharma-biopharma/drug-discovery-development/target-and-lead-identification-and-validation/kinasebiology/kinase-activity-assays/lanthascreentm-eu-kinase-binding-assay/lanthascreen-eu-kinase-binding-assay-validation-table.html). This endpoint assay quantifies inhibitor binding through the displacement of a fluorescently labelled ATP-competitive tracer from LIMK1. A mixture of the 100× compounds, 2× LIMK1/antibody mixture (Eu-anti-His), 4× tracer 236, and kinase buffer were mixed sequentially. After incubation at room temperature for 1 h, the mixture was analysed using a fluorescence plate reader. The kinase inhibition assay results were expressed as the average of two replicates.

HCT-116 = experiment: MTT assay (cell viability); type: cell-based; conditions: Homo sapiens, 72 h, mean ± SD
Protocol: (§4) Colorectal cell line, HCT-116, was purchased from the Bioresource Collection and Research Centre (BCRC, Hsinchu, Taiwan), while HT-29 was obtained from the American Type Culture Collection (ATCC, Manassas, VA, USA). Both cell lines were maintained in McCoy’s 5 A medium (with L-glutamine and 2.2 g/L NaHCO3, M4892, Sigma) supplemented with 10% foetal bovine serum (Corning Incorporated, NY, USA) and 1% penicillin–streptomycin–amphotericin B (100 unit/ml penicillin G, 0.1 mg/ml streptomycin sulphate, 0.25 μg/ml amphotericin B, Corning Incorporated, NY, USA). All cultures were maintained in a humidified incubator at 37 °C with 5% CO2.
(§5) Cells were seeded in 96-well plates at a density of 3 × 10^3 cells/well in 100 μl of culture medium and treated with compounds at the indicated concentrations (0.3, 1, 3, 10, and 30 μM) for 72 h. Following treatment, the 3-(4,5-dimethylthiazol-2-yl)-2,5-diphenyltetrazolium bromide (MTT) solution (5 mg/ml in Phosphate-buffered saline (PBS)) was added to each well to reach a final concentration of 0.5 mg/ml, and the cells were incubated at 37 °C for 1 h. The resulting formazan crystal was dissolved in 100 µl of DMSO, and the absorbance was measured at 550 nm using an ELISA reader (Molecular Device, Sunnyvale, CA, USA).

HT-29 = experiment: MTT assay (cell viability); type: cell-based; conditions: Homo sapiens, 72 h, mean ± SD
Protocol: as §4, §5

TGFBR1 (ALK5) = target: T5, TGFBR1 (ALK5) (Homo sapiens, UniProt P36897); experiment: SelectScreen kinase panel, LanthaScreen Eu kinase binding assay; conditions: read-out: Inhibition percentage at 1 μM
T5 construct: purchased Thermo Fisher Scientific SelectScreen
Protocol: as §3, §1

LIMK2 = target: T6, LIMK2 (Homo sapiens, UniProt P53671); experiment: as above; conditions: read-out: Inhibition percentage at 1 μM
T6 construct: purchased Thermo Fisher Scientific SelectScreen
Protocol: as §3, §1

BRAF = target: T7, BRAF (Homo sapiens, UniProt P15056); experiment: as above; conditions: read-out: Inhibition percentage at 1 μM
T7 construct: purchased Thermo Fisher Scientific SelectScreen
Protocol: as §3, §1

WEE1 = target: T8, WEE1 (Homo sapiens, UniProt P30291); experiment: as above; conditions: read-out: Inhibition percentage at 1 μM
T8 construct: purchased Thermo Fisher Scientific SelectScreen
Protocol: as §3, §1

MAP2K1 (MEK1) = target: T9, MAP2K1 (MEK1) (Homo sapiens, UniProt Q02750); experiment: as above; conditions: read-out: Inhibition percentage at 1 μM
T9 construct: purchased Thermo Fisher Scientific SelectScreen
Protocol: as §3, §1

EPHA3 = target: T10, EPHA3 (Homo sapiens, UniProt P29320); experiment: as above; conditions: read-out: Inhibition percentage at 1 μM
T10 construct: purchased Thermo Fisher Scientific SelectScreen
Protocol: as §3, §1

ICK = target: T11, ICK (Homo sapiens, UniProt Q9UPZ9); experiment: as above; conditions: read-out: Inhibition percentage at 1 μM
T11 construct: purchased Thermo Fisher Scientific SelectScreen
Protocol: as §3, §1

VRK2 = target: T12, VRK2 (Homo sapiens, UniProt Q86Y07); experiment: as above; conditions: read-out: Inhibition percentage at 1 μM
T12 construct: purchased Thermo Fisher Scientific SelectScreen
Protocol: as §3, §1

DAPK1 = target: T13, DAPK1 (Homo sapiens, UniProt P53355); experiment: SelectScreen kinase panel, Adapta Universal kinase assay; type: biochemical; conditions: read-out: Inhibition percentage at 1 μM
T13 construct: purchased Thermo Fisher Scientific SelectScreen
Protocol: Kinase panel screening was carried out using the SelectScreen Kinase Assay (Thermo Fisher Scientific, Waltham, MA, USA). Three complementary assay formats were applied: the Z′-LYTE kinase assay, LanthaScreen Eu kinase binding assay, and Adapta Universal kinase assay. The kinases selected for this study and the corresponding assay formats are summarised in Supplementary Table S1. The Adapta Universal Kinase Assay (Thermo Fisher Scientific, Waltham, MA, USA) was used to assess kinase activity. This homogeneous, fluorescence-based immunoassay quantifies kinase activity by detecting ADP produced during the enzymatic reaction, according to the manufacturer’s instructions (https://www.thermofisher.com/tw/zt/home/industrial/pharma-biopharma/drug-discovery-development/target-and-lead-identification-and-validation/kinasebiology/kinase-activity-assays/adapta-universal-kinase-assay.html).

T4 sequence (P53667 whole entry): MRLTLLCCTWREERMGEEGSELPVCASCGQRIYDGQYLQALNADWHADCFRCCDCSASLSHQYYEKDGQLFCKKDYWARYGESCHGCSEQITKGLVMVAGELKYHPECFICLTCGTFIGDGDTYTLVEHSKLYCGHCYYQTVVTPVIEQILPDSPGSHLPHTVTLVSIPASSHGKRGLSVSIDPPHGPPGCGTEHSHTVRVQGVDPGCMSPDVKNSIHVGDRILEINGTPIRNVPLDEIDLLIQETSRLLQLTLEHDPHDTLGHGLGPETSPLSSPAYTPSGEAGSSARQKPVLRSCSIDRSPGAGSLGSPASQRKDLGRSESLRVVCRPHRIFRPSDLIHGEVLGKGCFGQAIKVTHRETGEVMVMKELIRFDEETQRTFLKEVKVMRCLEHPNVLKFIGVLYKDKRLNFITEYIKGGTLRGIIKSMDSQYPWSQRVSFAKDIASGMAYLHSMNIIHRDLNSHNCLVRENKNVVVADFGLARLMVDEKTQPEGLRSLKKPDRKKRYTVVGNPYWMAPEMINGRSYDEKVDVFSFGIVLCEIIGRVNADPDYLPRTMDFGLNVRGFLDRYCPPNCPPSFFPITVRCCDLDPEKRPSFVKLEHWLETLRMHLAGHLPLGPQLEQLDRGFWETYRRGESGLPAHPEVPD
T12 sequence (Q86Y07 whole entry): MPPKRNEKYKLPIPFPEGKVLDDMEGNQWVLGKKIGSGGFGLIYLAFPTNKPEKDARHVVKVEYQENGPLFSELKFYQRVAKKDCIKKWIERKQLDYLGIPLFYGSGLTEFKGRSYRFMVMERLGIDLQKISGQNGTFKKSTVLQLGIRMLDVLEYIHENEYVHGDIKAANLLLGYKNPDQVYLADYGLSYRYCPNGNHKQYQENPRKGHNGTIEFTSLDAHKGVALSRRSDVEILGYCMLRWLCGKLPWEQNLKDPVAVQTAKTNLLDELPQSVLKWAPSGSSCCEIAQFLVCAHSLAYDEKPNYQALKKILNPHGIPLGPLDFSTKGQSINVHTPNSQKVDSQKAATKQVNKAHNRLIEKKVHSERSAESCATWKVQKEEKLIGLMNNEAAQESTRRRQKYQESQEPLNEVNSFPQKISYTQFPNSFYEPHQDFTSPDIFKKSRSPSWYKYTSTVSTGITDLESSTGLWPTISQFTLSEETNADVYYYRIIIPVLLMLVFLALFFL
T5 sequence (P36897 34-503): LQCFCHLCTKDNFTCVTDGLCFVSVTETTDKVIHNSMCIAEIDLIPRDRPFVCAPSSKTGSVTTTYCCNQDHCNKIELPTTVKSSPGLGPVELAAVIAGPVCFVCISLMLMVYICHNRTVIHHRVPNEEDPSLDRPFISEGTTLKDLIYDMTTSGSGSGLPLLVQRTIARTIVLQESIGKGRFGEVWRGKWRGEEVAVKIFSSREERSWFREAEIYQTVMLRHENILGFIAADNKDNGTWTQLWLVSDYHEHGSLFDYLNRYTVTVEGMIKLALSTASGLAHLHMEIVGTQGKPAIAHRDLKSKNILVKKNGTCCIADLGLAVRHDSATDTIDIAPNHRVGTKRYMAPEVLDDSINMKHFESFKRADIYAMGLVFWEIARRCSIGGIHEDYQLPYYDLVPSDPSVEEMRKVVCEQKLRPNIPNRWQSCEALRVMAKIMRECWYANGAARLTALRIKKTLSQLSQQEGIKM
T3 sequence (Q13177 whole entry): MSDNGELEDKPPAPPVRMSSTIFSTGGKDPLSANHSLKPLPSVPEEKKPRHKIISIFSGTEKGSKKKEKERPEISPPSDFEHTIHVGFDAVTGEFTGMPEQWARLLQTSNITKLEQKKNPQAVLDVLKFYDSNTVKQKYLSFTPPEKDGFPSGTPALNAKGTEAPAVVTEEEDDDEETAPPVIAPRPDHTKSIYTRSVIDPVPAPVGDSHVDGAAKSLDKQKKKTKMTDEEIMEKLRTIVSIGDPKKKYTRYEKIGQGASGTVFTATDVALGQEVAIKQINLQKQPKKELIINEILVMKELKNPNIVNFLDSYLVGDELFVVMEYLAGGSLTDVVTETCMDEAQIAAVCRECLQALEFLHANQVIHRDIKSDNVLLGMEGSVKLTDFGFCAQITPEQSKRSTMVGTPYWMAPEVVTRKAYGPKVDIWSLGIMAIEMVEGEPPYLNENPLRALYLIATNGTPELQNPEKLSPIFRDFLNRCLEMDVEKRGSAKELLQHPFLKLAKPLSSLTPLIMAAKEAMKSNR
T13 sequence (P53355 whole entry): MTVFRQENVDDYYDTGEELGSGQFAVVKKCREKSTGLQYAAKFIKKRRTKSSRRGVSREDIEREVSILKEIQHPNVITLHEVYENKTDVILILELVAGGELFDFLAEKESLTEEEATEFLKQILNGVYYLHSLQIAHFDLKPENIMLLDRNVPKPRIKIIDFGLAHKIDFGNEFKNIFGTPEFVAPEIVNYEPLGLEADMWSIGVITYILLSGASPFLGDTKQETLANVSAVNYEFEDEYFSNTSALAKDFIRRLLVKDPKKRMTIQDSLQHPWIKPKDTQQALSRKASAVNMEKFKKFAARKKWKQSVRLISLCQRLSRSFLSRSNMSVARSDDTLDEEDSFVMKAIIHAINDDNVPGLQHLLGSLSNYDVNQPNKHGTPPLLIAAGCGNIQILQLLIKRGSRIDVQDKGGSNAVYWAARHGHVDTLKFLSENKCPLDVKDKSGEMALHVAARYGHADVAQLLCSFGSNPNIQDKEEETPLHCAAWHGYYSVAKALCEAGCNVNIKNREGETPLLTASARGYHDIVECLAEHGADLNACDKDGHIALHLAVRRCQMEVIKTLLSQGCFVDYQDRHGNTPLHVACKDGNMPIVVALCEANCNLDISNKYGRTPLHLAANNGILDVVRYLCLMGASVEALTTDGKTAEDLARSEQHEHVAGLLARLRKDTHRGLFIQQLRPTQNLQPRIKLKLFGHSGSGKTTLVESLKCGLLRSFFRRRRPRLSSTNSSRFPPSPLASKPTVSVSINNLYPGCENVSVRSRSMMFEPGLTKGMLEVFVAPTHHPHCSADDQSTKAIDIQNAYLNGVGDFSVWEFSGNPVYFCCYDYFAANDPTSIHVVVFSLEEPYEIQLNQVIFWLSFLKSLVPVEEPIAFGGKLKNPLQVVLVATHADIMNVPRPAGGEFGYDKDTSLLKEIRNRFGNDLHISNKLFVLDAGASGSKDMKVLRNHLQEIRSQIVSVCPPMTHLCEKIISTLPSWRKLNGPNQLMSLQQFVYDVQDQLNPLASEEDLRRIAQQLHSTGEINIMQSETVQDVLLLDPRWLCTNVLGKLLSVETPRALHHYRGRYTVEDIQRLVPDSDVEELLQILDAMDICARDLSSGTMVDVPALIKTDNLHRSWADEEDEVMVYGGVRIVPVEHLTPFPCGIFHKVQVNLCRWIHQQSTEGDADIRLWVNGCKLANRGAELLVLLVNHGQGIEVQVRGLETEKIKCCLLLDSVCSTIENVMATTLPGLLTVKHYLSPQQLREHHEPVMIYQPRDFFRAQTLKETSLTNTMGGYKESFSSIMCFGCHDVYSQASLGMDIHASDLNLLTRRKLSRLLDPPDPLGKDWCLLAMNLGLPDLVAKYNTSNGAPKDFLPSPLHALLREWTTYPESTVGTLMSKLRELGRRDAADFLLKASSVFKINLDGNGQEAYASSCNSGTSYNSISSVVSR
T11 sequence (Q9UPZ9 whole entry): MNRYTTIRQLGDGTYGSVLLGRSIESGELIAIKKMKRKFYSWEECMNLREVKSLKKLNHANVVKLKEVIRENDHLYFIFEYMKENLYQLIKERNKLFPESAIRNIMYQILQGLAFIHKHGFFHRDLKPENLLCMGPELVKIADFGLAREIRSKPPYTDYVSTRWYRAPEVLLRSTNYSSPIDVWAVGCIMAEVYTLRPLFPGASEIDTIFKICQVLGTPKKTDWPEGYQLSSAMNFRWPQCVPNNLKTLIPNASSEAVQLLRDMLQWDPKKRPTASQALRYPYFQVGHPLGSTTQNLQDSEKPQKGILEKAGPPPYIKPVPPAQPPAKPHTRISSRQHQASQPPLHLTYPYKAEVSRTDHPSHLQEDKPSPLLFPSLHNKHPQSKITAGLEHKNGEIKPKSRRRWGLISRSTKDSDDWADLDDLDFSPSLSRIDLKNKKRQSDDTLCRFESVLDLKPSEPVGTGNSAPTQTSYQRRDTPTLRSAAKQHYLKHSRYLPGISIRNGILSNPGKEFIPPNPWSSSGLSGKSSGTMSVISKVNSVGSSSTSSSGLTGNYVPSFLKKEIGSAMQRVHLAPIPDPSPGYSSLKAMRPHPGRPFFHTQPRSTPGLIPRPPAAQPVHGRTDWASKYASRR

inhibition at 1 µM (PRKACA (PKA)): 5%
inhibition at 1 µM (PRKCA (PKC alpha)): 13%
inhibition at 1 µM (PAK2 (PAK65)): 4%
inhibition percentages across the panel of 40 kinases [1]: below 50%
IC50 (LIMK1): 0.94 µM
inhibition at 1 µM (LIMK1; 1 μM, Figure 4(B), read-out: Inhibition percentage at 1 μM): > 50%
inhibition at 10 µM (LIMK1; compound at 10 μM, average of two replicates, read-out: Inhibition percentage at 10 μM): 109%
IC50 (HCT-116): 18.2 ± 0.9 µM
IC50 (HT-29): 28.8 ± 0.4 µM
inhibition at 1 µM (TGFBR1 (ALK5)): 24%
inhibition at 1 µM (LIMK2): 30%
inhibition at 1 µM (BRAF): 16%
inhibition at 1 µM (WEE1): 44%
inhibition at 1 µM (MAP2K1 (MEK1)): 4%
inhibition at 1 µM (EPHA3): 2%
inhibition at 1 µM (ICK): 32%
inhibition at 1 µM (VRK2): 3%
inhibition at 1 µM (DAPK1): -15%
Compound: O=C(/C=C/c1ccc(O)c(O)c1)CCCCn1ccc2c(O)cccc21 [Compound 13a, (E)-1-(3,4-dihydroxyphenyl)-7-(4-hydroxy-1H-indol-1-yl)hept-1-en-3-one]

— paper PMC12624955, “Exploring diarylheptanoid derivatives to target LIMK1 as potential agents against colorectal cancer” (Journal of Enzyme Inhibition and Medicinal Chemistry, 2025)
